Ki and IC50 data for eleven compounds are collected here from ChEMBL document CHEMBL4680262, “Development of oxathiino[6,5-b]pyridine 2,2-dioxide derivatives as selective inhibitors of tumor-related carbonic anhydrases IX and XII” (Eur J Med Chem, 2020).

Each structure is given as a SMILES string.

Usually Ki stands for the equilibrium dissociation constant of an inhibitor or competing ligand from its target. By IC50 is commonly meant the concentration at which inhibition is half-maximal.

One experiment deals with Carbonic anhydrase 1 (Homo sapiens, UniProt P00915). Briefly: Inhibition of recombinant human carbonic anhydrase 1 incubated for 6 hrs prior to testing measured for 10 to 100 secs by phenol red-based stopped-flow CO2 hydration assay.
Another experiment has as its target Carbonic anhydrase 9 (Homo sapiens, UniProt Q16790). The experiment can be described thus: Inhibition of recombinant human carbonic anhydrase 9 incubated for 6 hrs prior to testing measured for 10 to 100 secs by phenol red-based stopped-flow CO2 hydration assay.
The target in the next experiment is Carbonic anhydrase 2 (Homo sapiens, UniProt P00918). The experiment can be described thus: Inhibition of recombinant human carbonic anhydrase 2 incubated for 6 hrs prior to testing measured for 10 to 100 secs by phenol red-based stopped-flow CO2 hydration assay.
In a further experiment the test system is A549. Briefly: Cytotoxicity against human A549 cells assessed as reduction in cell viability incubated for 48 hrs by MTT assay. The format is functional, cell-based. The conditions noted are these: A549, 48 h. For orientation: Formazan colour is commonly taken as a measure of viable cells.
For the next experiment, the system named is HeLa. The experiment can be described thus: Cytotoxicity against human HeLa cells assessed as reduction in cell viability incubated for 48 hrs by MTT assay. Type of experiment: functional, cell-based.
The next experiment has as its system MCF7. Briefly: Cytotoxicity against human MCF7 cells assessed as reduction in cell viability incubated for 48 hrs by MTT assay. Type of experiment: functional, cell-based. To be noted: MCF7, 48 h.

Chain of Carbonic anhydrase 1 (P00915 whole entry): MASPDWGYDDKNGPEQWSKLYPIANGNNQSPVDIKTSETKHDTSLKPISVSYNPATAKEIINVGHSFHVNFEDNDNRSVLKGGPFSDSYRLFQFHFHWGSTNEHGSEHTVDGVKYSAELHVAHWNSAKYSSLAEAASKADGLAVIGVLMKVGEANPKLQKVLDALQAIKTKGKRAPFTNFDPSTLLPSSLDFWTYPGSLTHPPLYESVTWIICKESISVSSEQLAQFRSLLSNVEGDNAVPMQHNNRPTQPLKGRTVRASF

For the compound `O=S1(=O)C=Cc2cc(-c3ccc(Cl)cc3)cnc2O1`, the Ki at Carbonic anhydrase 1 is more than 100 µM; at Carbonic anhydrase 9, 0.0863 µM; on Carbonic anhydrase 2, more than 100 µM.

On to `O=S1(=O)C=Cc2cc(-c3ccc(OC(F)(F)F)cc3)cnc2O1`, for which the Ki on Carbonic anhydrase 1 was more than 100 µM; on Carbonic anhydrase 9 it was 0.2 µM; on Carbonic anhydrase 2, more than 100 µM.

With `O=S1(=O)C=Cc2cc(-c3ccc(C(F)(F)F)cc3)cnc2O1`, the IC50 in the experiment on A549 turned out to be 77 µM; in the experiment on HeLa, 42 µM; in the experiment with MCF7 it was 75 µM. Moreover, on Carbonic anhydrase 9, the Ki stood at 0.0701 µM.

On to `COc1ccc(-c2cnc3c(c2)C=CS(=O)(=O)O3)cc1`, for which the Ki on Carbonic anhydrase 1 was more than 100 µM; on Carbonic anhydrase 9 it was 0.0868 µM; on Carbonic anhydrase 2, more than 100 µM.

On to `O=S1(=O)C=Cc2cc(-c3ccc(-c4ccccc4)cc3)cnc2O1`, for which the Ki at Carbonic anhydrase 1 is more than 100 µM; at Carbonic anhydrase 9, 0.21 µM; at Carbonic anhydrase 2, more than 100 µM.

For the compound `O=S1(=O)C=Cc2cc(-c3cc(Cl)cc(Cl)c3)cnc2O1`, the values for the IC50 with A549, in the experiment with HeLa and in the experiment with MCF7 were 14 µM, 4.8 µM and 20 µM, respectively. Besides, the results for the Ki at Carbonic anhydrase 1, on Carbonic anhydrase 9 and at Carbonic anhydrase 2 were more than 100 µM, 0.0569 µM and more than 100 µM, respectively.

Turning to `O=S1(=O)C=Cc2cc(-c3cccc4ccccc34)cnc2O1`, on Carbonic anhydrase 9, the Ki was determined as 0.221 µM.

On to `O=S1(=O)C=Cc2cc(-c3ccccc3)cnc2O1`, for which the Ki on Carbonic anhydrase 1 was more than 100 µM; on Carbonic anhydrase 9 it was 0.134 µM; at Carbonic anhydrase 2, more than 100 µM.

Consider `COc1cccc(-c2cnc3c(c2)C=CS(=O)(=O)O3)c1`, for which the Ki on Carbonic anhydrase 1 was more than 100 µM; at Carbonic anhydrase 9, 0.137 µM; on Carbonic anhydrase 2, more than 100 µM.

On to `O=S1(=O)C=Cc2cccnc2O1`, for which the Ki on Carbonic anhydrase 1 is 64.1 µM; at Carbonic anhydrase 9 it was 0.169 µM; at Carbonic anhydrase 2, 14 µM.

In the case of `CC(C)(C)c1ccc(-c2cnc3c(c2)C=CS(=O)(=O)O3)cc1`, the IC50 in the experiment on A549 was 149 µM; with HeLa, 171 µM; with MCF7, more than 500 µM. In addition, the Ki at Carbonic anhydrase 9 stood at 0.0314 µM.
